Reference: PubChem BioAssay (NCI)
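Following 48 hours of exposure in 96-well plates, responses at five concentrations were used to interpolate endpoints linearly. GI50 = concentration required for 50% inhibition of growth. TGI marks complete inhibition of growth.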

Columns and labels:
Assay in all cases: growth of human tumour cells (NCI), 48 h
HCT-15 colon = system: HCT-15 colon
SK-MEL-28 melanoma = system: SK-MEL-28 melanoma
OVCAR-4 ovarian = system: OVCAR-4 ovarian
HCT-116 colon = system: HCT-116 colon
A498 renal = system: A498 renal
NCI-H226 lung = system: NCI-H226 lung
SN12C renal = system: SN12C renal
MCF7 breast = system: MCF7 breast
786-0 renal = system: 786-0 renal
NCI-H23 lung = system: NCI-H23 lung

Row | Structure (SMILES) | TGI (HCT-15 colon) [µM] | TGI (SK-MEL-28 melanoma) [µM] | TGI (OVCAR-4 ovarian) [µM] | TGI (HCT-116 colon) [µM] | TGI (A498 renal) [µM] | TGI (NCI-H226 lung) [µM] | TGI (SN12C renal) [µM] | TGI (MCF7 breast) [µM] | TGI (786-0 renal) [µM] | TGI (NCI-H23 lung) [µM] | GI50 (OVCAR-4 ovarian) [µM] | GI50 (NCI-H226 lung) [µM]
1 | C/C1=C\CC[C@@]2(C)O[C@@H]2C[C@@H](C2(C)CO2)CC/C(C)=C/CC1 (some centres not stated) | 25 | 57.6 | > 100 | 45.5 | > 100 | 30.3 | 33.5 | 37.1 | 31.8 | 48.8 |  | 
2 | C(/C=C(\Nc1ccccc1)C12CC3CC(CC(C3)C1)C2)=Nc1ccccc1 | 28 | 47.1 | 48.8 | 27 | > 100 | 38.5 | 36.2 | 59.4 | 29.3 | 36.8 |  | 
3 | Cc1cc2c([N+](=O)[O-])cc3c(c2o1)C(=O)C=CC3=O | 37.1 | > 20.8 | 30.2 | 10.5 | 29.5 | > 75.1 | 12.2 | 11.2 | 3.59 | 34.9 |  | 
4 | COc1ccc(S(=O)(=O)N2C(=O)CCC2C(=O)NN)cc1 (configuration not stated) | > 100 | > 100 | > 100 | > 100 | > 100 | > 100 | > 100 | > 100 | > 100 | > 100 |  | 
5 | COc1cc(-c2cc(=O)c3cc4c(=O)cc(-c5cc(OC)c(OC)c(OC)c5)oc4cc3o2)cc(OC)c1OC | > 100 | > 100 | > 100 | > 100 | 65.6 | 46.2 | > 100 | > 100 | 39 | > 67.8 |  | 
6 | C[C@]12CC[C@@H]3c4ccc(O)cc4CC[C@H]3[C@@H]1C/C(=C\c1ccncc1)[C@@H]2O | 33.3 | > 100 | > 100 | > 100 | 17.7 | 42.1 | > 100 | 30.2 | 80.9 | 22.5 |  | 
7 | CCCCn1cnc2c(c(CC#N)nn2-c2ccccc2)c1=N | > 100 | > 100 | > 100 | > 100 | 91.6 | > 100 | > 100 | > 100 | > 100 | > 100 |  | 
8 | O=C(O)c1cc(-c2ccc3c(O)c(O)ccc3c2)ccc1O | > 75 | > 75 | 27 | 30.3 | > 75 | > 75 | 30.8 | 25.1 | > 75 | > 75 |  | 
9 | CC(=O)c1cccn1/C=C(\OC(=O)OC(C)(C)C)c1ccc[nH]1 | > 100 | > 100 | > 100 | > 100 | > 100 | > 100 | > 100 | > 100 | > 100 | > 100 |  | 
10 | Cc1cc(-c2nc3ccccc3s2)ccc1NC(=O)[C@@H](N)CCCCN | 24.3 | 31.3 | 21.3 | 19.9 | 19.2 | 17.8 | 32.9 | 11.7 | 13.2 | 17.5 |  | 
11 | NC(CC1=CS(=O)(=O)c2ccc(Cl)cc21)C(=O)O (configuration not stated) | > 100 | > 100 | > 100 | > 100 | > 100 | > 100 | > 100 | > 100 | > 100 | > 100 |  | 
12 | CN(Cc1ccccc1)c1cc(=O)n(C)c(=O)[nH]1 | > 100 | > 100 | > 100 | > 100 | > 100 | > 100 | > 100 | > 100 | > 100 | > 100 |  | 
13 | CC(=O)Oc1cc(C(F)(F)F)ccc1C(=O)OC1(C)OC(=O)c2ccc(C(F)(F)F)cc2O1 (configuration not stated) | > 100 | > 100 | > 100 | > 100 | > 100 | > 100 | > 100 | > 100 | > 100 | > 100 |  | 
14 | O=C(O)C(SC1=NNC2(C(=O)N1)c1ccccc1-c1ccccc12)SC1=NNC2(C(=O)N1)c1ccccc1-c1ccccc12 | > 10 | > 10 | > 10 | > 10 | > 10 | > 10 | > 10 | > 10 | > 10 | > 10 |  | 
15 | N/C(=N\S(=O)(=O)c1c(C(F)(F)F)cccc1C(F)(F)F)Nc1ccc(Cl)cc1 | > 100 | > 100 | > 100 | > 100 | 50.6 | > 100 | 78.1 | > 100 | 74.7 | 30.8 |  | 
16 | Nc1nc(Cl)cc(NCC2(CO)CCC(CCc3ccccc3)C2)n1 (configuration not stated) | 34 | 37.3 | 31.2 | 21.9 | 26.8 | 36.1 | 31.1 | 32.7 | 31.9 | 25.1 |  | 
17 | Oc1[nH]c2ccc(Br)cc2c1N=NC(=S)Nc1ccc(F)cc1 | 11.8 | 39.8 | 25.7 | 18 | 8.76 | 40.1 | > 100 | 24.7 | 22.4 | 6.96 |  | 
18 | O=[N+]([O-])c1ccc(/C=C/c2cc(-c3ccccc3)nc3ccc4ccccc4c23)cc1 | > 100 | > 100 | > 100 | > 100 | > 100 | > 100 | > 100 | > 100 | > 100 | > 100 |  | 
19 | Cc1ccc(OCCn2cc(Nc3ccccc3)c(=O)n(CCOc3ccc(C)cc3)c2=O)cc1 | > 100 | > 100 | > 100 | > 100 | > 100 | > 100 | > 100 | > 100 | > 100 | > 100 |  | 
20 | Clc1ccc(CSCCc2ccncc2)cc1Cl | 56.7 | 50.8 | 98.7 | 31.5 | 26 | 49.2 | 42.2 | 35.7 | 33.1 | 51.1 |  | 
21 | Nc1ccc(-c2nc3ccccc3s2)cc1C(F)(F)F | 27.6 | 33.9 | 32.9 | 26.1 | 31.4 | 34.4 | 27.3 | 19.4 | 26.6 | 28 | 15.9 | 15.3
22 | COC(=O)CCc1cc(OC)c2c(c1)[C@H](C(=O)OC)[C@@H](c1ccc(O)c(OC)c1)O2 | > 100 | > 100 | > 100 | > 100 | 74.5 | > 100 | > 100 | > 100 | > 100 | > 100 |  | 
23 | COC(=O)c1cc2c(cc1CC1Cc3cc4c(cc3C1)CCC4)CCC2 | > 100 | 80.4 | > 100 | > 100 | > 100 | > 100 | > 100 | 91.2 | > 100 | > 100 |  | 
24 | O=C1NCC(NC(=O)C(F)(F)F)c2c(Br)sc(Br)c21 (configuration not stated) | > 100 | > 100 | > 100 | > 100 | > 100 | > 100 | > 100 | > 100 | > 100 | > 100 |  | 
25 | O=c1ccn(C2OC(CO)C(P(=O)(O)O)C2O)c(=O)[nH]1 (configuration not stated) | > 100 | > 100 | > 100 | > 100 | > 100 | > 100 | > 100 | > 100 | > 100 | > 100 |  | 
26 | NNC1=N/C(=C\c2ccco2)C(Cl)=N1 | > 100 | > 100 | 75.8 | > 100 | > 100 | > 100 | > 100 | > 100 | > 100 | > 100 |  | 
27 | COC(=O)c1c2c(cc3c1CCC3)CCC2 | > 100 | > 100 | > 100 | > 100 | 90.3 | > 100 | > 100 | > 100 | > 100 | > 100 |  | 
28 | CC(=O)O[C@H]1C(=O)[C@@]2(C)[C@H]([C@H](OC(=O)c3ccc(F)cc3)[C@]3(O)C[C@H](OC(=O)[C@H](O)[C@@H](NC(=O)c4ccccc4)c4ccccc4)C(C)=C1C3(C)C)[C@]1(OC(C)=O)CO[C@@H]1C[C@@H]2O | > 25 | > 25 | > 25 | 0.381 | > 6.73 | > 25 | > 25 | > 25 | > 25 | > 25 |  | 
